This experiment relates to TATA box-containing oligonucleotide (DNA, duplex) GAAGGGGGGCTATAAAAGGGGGTG/CACCCCCTTTTATAGCCCCCCTTC
Put plainly: EMSA, inhibition of TBP binding to TATA box probe. To be noted: LightShift chemiluminescent EMSA; probe preincubated with BBR; TBP from PC12 nuclear extract displaced; apparent. On the technique in general: A gel shift assay detects complexes by their altered migration in electrophoresis.

Structures are written as SMILES.

With `COc1ccc2cc3[n+](cc2c1OC)CCc1cc2c(cc1-3)OCO2`, the IC50 came out at 0.3985 µmol.
